PMC10787068, “Targeting the Mitochondrial Chaperone TRAP1 Alleviates Vascular Pathologies in Ischemic Retinopathy” (Advanced Science, 2023)
Entries after “also recorded” stand apart in the source; their conditions may differ. Non-standard residues stand in square brackets, D forms with d. Residues, ends and D or L forms follow the SMILES beside them. *: point of attachment. Nle = CCCC[C@H](N)C(=O)O; Cbz = O=C(OCc1ccccc1)*

Tests used:
Type in all cases: cell-based, human
HIF1α = HIF1α degradation in MIO‐M1 cells under hypoxia (western blotting); details: western blotting; for effect of co-treatment on HIF1α degradation triggered by TRAP1 inhibition: MIO‐M1 cells with gamitrinib or MitoQ, 6 h, hypoxia, BAPTA 10 µM, ALLN 10 µM
calpain‐1 = assay: Calpain‐1 activation (autolysis, western blotting) in MIO‐M1 cells; details: MIO‐M1 cells with 3 µM gamitrinib or 0.5 µM MitoQ, 6 h, hypoxia; BAPTA 10 µM, ALLN 10 µM
Description: (§1) Figure 5 TRAP1 inhibition induces mPTP opening, mitochondrial calcium discharge, and calpain‐1 activation. A) Visualization of cytoplasmic calcium. Fluo‐4 AM‐labeled MIO‐M1 cells were incubated with the TRAP1 inhibitors gamitrinib and MitoQ^[ [32], [41] ^] for 6 h or thapsigargin for 30 min under hypoxia, and analyzed by confocal microscopy. Scale bars, 10 µm and 2 µm (inset). […] MIO‐M1 cells were treated with a TRAP1 inhibitor, 3 µM gamitrinib or 0.5 µM MitoQ, for 6 h under hypoxia (n = 4). Enzyme activity was measured using a fluorogenic calpain substrate as described in the Experimental Section. C) Restored HIF1α expression upon CypD inhibition. MIO‐M1 cells were incubated with control or CypD‐targeting siRNAs, treated with the TRAP1 inhibitor MitoQ for 6 h under hypoxia, harvested, and analyzed by western blotting. Black and red arrows indicate pro and autolyzed forms of calpain‐1, respectively. […] MIO‐M1 cells were incubated with TRAP1‐targeting siRNAs for 48 h, exposed to hypoxia for 6 h, harvested, and analyzed by qPCR (n = 4). […] Cells were then analyzed by flow cytometry to detect cytoplasmic calcium. […] MIO‐M1 cells were incubated with TRAP1 inhibitors, 3 µM gamitrinib, and 0.5 µM MitoQ, and a cell‐permeable calcium chelator, BAPTA (10 µM), for 6 h as indicated under hypoxia and analyzed by western blotting. […] Data information: Data are expressed as mean ± SEM. […]

cytoplasmic Hsp90 = assay: Cytoplasmic Hsp90 inhibition in MIO-M1 cells (western blotting); details: 6 hr
Description: Cells and tissue samples were lysed using RIPA buffer (50 mM Tris, pH 8.0, 150 mM NaCl, 1% NP‐40, and 0.25% N‐deoxycholate) containing protease and phosphatase inhibitor cocktails (Roche). Lysates were separated by SDS‐PAGE and transferred to PVDF membranes. The membranes were blocked with 10% skim milk prepared in TBST (TBS (50 mM Tris and 150 mM NaCl, pH 7.6) containing 0.05% Tween‐20) for 1 h at RT and incubated with primary antibodies in antibody diluent solution (TBS containing 3 mM sodium azide and 0.1% BSA) overnight at 4 °C. After washing with TBST, the membranes were incubated with secondary antibodies for 1 h in 10% skim milk prepared in TBST. Finally, the membranes were washed three times with TBST, treated with ECL solution (Bio‐Rad; Hercules, CA, USA), and analyzed using a LAS4000 system (GE Healthcare; Chicago, IL, USA).
inhibitor) and gamitrinib as indicated for 6 hr, harvested, and analyzed by western blotting.
C) Cytoplasmic Hsp90 inhibition. MIO-M1
cells were incubated with DMAG (an Hsp90 inhibitor) as indicated for 6 hr under normoxia
or hypoxia and analyzed by western blotting.

MIO‐M1 cells = assay: Cytoplasmic calcium (Fluo‐4 AM) in MIO‐M1 cells; details: Fluo‐4 AM‐labeled MIO‐M1 cells under hypoxia; MitoQ 6 h, thapsigargin 30 min
Description: as §1

calpain = assay: Calpain activity assay in MIO‐M1 cells; details: 3 µM gamitrinib or 0.5 µM MitoQ, 6 h under hypoxia, fluorogenic calpain substrate, n = 4
Description: as §1

Trap1 KO MIO-M1 cells = assay: TRAP1 inhibitor effects in Trap1 KO MIO‐M1 cells
Description: MIO‐M1 Trap1 KO cell lines were generated using CRISPR/Cas9‐derived RNA‐guided endonucleases (Toolgen; Seoul, Republic of Korea). MIO‐M1 cells were co‐transfected with the Cas9 vector and TRAP1‐sgRNA expression vector (sgRNA sequence 1; 5′‐[…]‐3′ and sequence 2; 5′‐[…]‐3′) using jetPRIME transfection reagent (Polyplus; Illkirch‐Graffenstaden, France). Transfected cells were selected in culture medium containing […] puromycin (Sigma). Single‐cell colonies were collected using a cloning cylinder (I.D. × H 6.4 mm × 8 mm; Sigma) and analyzed using T7 endonuclease I to confirm Trap1 KO.
Supplementary Figure 16. Calpain-1 autolysis and HIF1α degradation in Trap1 […]
A) HIF1α degradation and calpain-1 autolysis in Trap1 knockout (KO) MIO-M1 cells. Trap1 KO MIO-M1 cells were generated as described in the Experimental Section and incubated in hypoxia for 6 hr, followed by analysis using western blotting. Under hypoxia, HIF1α degradation and autoproteolysis of calpain-1 were found in Trap1 KO MIO-M1 cells, when compared with wild type (WT) cells. […]
cell lines were established using MIO-M1 cells. WT and KO cells were incubated with MitoQ for 6 hr under hypoxia and analyzed by western blotting. Trap1 KO reduced the expression of […]
Quantification of the HIF1α protein level. HIF1α western blot density was analyzed and compared. Data are expressed as mean ± SEM from four independent experiments.
C) Cytoplasmic calcium concentration. WT and Trap1-KO MIO-M1 cells were labeled with […]
Fluo-4 AM, incubated with 3 μM gamitrinib or 1 μM MitoQ for 6 hr under hypoxia, collected, and analyzed by flow cytometry. Data information: Data are expressed as mean ± SEM.
Student t-test, ***P < 0.001; ns, not significant. […]

## CCCC[C@@H](C=O)NC(=O)[C@H](CC(C)C)NC(=O)[C@H](CC(C)C)NC(C)=O [ALLN] (Ac-Leu-Leu-[Nle]-aldehyde)
HIF1α
  effect of co-treatment on HIF1α degradation triggered by TRAP1 inhibition: fully reversed
calpain‐1
  effect of co-treatment on calpain‐1 activation triggered by TRAP1 inhibition: fully reversed

## O=C(O)CN(CC(=O)O)c1ccccc1OCCOc1ccccc1N(CC(=O)O)CC(=O)O [BAPTA, 1,2‐bis (o‐aminophenoxy) ethane‐N, N, N', N'‐tetraacetic acid]
HIF1α
  effect of co-treatment on HIF1α degradation triggered by TRAP1 inhibition: fully reversed
calpain‐1
  effect of co-treatment on calpain‐1 activation triggered by TRAP1 inhibition: fully reversed

## CO[C@H]1/C=C\C=C(/C)C(=O)NC2=CC(=O)C(NCCN(C)C)=C(C[C@@H](C)C[C@H](OC)[C@H](O)[C@@H](C)/C=C(\C)[C@@H]1OC(N)=O)C2=O [DMAG, 17‐Dimethyl‐aminothylamino‐17‐demethoxy‐geldanamycin]
HIF1α; MIO-M1 cells, 6 hr under normoxia or hypoxia
  stability of HIF1α: did not affect
Cytoplasmic Hsp90
  stress response protein Hsp70 level: upregulated

## COC(=O)CNC(=O)C(=O)OC [DMOG, dimethyloxalylglycine]
HIF1α
  effect of co-treatment on HIF1α degradation triggered by TRAP1 inhibition: did not affect; also recorded: unaffected

## CC(C)C[C@@H](C=O)NC(=O)[C@H](CC(C)C)NC(=O)[C@H](CC(C)C)NC(=O)OCc1ccccc1 [MG132] (Cbz-Leu-Leu-Leu-aldehyde)
HIF1α
  effect of co-treatment on HIF1α degradation triggered by TRAP1 inhibition: completely restored; also recorded: completely blocked

## CC(=O)N[C@@H](CSC(=O)[C@]1([C@@H](O)C(C)C)NC(=O)[C@H](C)[C@@H]1O)C(=O)O [lactacystin]
HIF1α
  effect of co-treatment on HIF1α degradation triggered by TRAP1 inhibition: not effectively restored; also recorded: did not

## O=C(O)CCC(=O)O [succinate]
HIF1α
  effect of co-treatment on HIF1α degradation triggered by TRAP1 inhibition: did not affect; also recorded: unaffected

## C/C=C(/C)C(=O)O[C@H]1C(C)=C2[C@H]([C@@H]1OC(=O)CCCCCCC)[C@@](C)(OC(C)=O)C[C@H](OC(=O)CCC)[C@@]1(O)[C@H]2OC(=O)[C@@]1(C)O [thapsigargin]
MIO‐M1 cells
  cytoplasmic calcium: substantial calcium release

## gamitrinib
calpain
  calpain enzyme activity: Calpain activation
Trap1 KO MIO-M1 cells; 3 μM gamitrinib or 1 μM MitoQ, 6 hr under hypoxia, Fluo-4 AM flow cytometry
  cytosolic calcium concentration in Trap1−/− cells: did not affect
Trap1 KO MIO-M1 cells; 6 hr under hypoxia, western blotting
  HIF1α expression in Trap1−/− cells: did not affect
Trap1 KO MIO-M1 cells; hypoxia
  calpain‐1 activation in Trap1−/− cells: did not affect
